Test results: patent publication US20200064357A1, “METHODS FOR DETERMINING AND MONITORING GASTROINTESTINAL INFLAMMATION” (Protagonist Therapeutics, Inc., priority 2016, published 2020)

What was measured:
[1] = test system: Sprague-Dawley rats; assay: Serum LCN2, TNBS rat colitis model, ELISA (Example E2); type: in vivo; settings: per ml of serum, vs vehicle
Experimental: The animals were grouped into sham, vehicle, and Peptide 993 treatment at 31 mg/kg/day. Feces were collected from the distal colon of rats and were immediately frozen at the time of necropsy. The feces samples were weighed and homogenized in extraction buffer (PBS pH 7.4 containing Pierce Protease Inhibitors, 3× volume:weight). The samples were incubated on ice for 90 minutes, with intermittent vortexing for complete homogenization. After centrifugation at 3000 g at 4 C, the homogenates were transferred to fresh tubes and subjected to another centrifugation at 14000 g at 4 C. The cleared supernatants were saved in multiple aliquots and stored at −80 C until analysis.
The serum samples were immediately frozen and thawed only once before use in the ELISA. For LCN2, the samples were diluted at different ratios with assay dilution buffer to capture the large variation in concentration amongst the different groups. The dilution ratios used were 1:10 (for sham), 1:1000, 1:2000 and 1:10000 (vehicle and Peptide 993). Fecal Lipocalin2(LCN2)/NGAL analysis:
Serum samples were analyzed for LCN2 concentration using the above ELISA protocol. Serum samples were used at dilutions ranging from 1:[…] to ensure that the measurements were within the range and sensitivity of the kit. […] Statistical analysis was performed using 1-Way-ANOVA with Dunnetts's multiple comparison.

[2] = test system: Sprague-Dawley rats; assay: IL-23-directed cytokines in distal colon of 5% DSS-induced acute colitis rats, qRT-PCR and ELISA (Example E4); type: in vivo, rat
Experimental: In the second model, acute colitis was induced in Sprague-Dawley rats by ad libitum access to 5% DSS dissolved in drinking water every day until analysis at day five. The animals were grouped into sham+vehicle (PO TID), DSS+vehicle (PO TID), and DSS+Peptide 993 treatment at 61 mg/kg/day (PO TID+in drinking water).
Expression of genes encoding IL-17A, IL-17F, and IL-22 was quantified by quantitative reverse transcription polymerase chain reaction (qRT-PCR), and production of IL-22 protein was quantified by ELISA. Relative expression was normalized to that of HPRT1; and values were determined as geometric mean±95% confidence interval. Protein concentration is shown as mean±SD. Statistical significance was assessed by One-way ANOVA with post-hoc Dunnett's vs. Vehicle control: *p≤0.05; **p≤0.01; ***p≤0.001; ns, not significant.

[3] = DSS rats, 61 mg/kg/day oral, distal colon, normalized to HPRT1

In the case of `CC(=O)NC(CCCNC(=N)N)C(=O)NC1CCSCC(C(=O)NC(Cc2ccc(OCCN)cc2)C(=O)NC(Cc2ccc3ccccc3c2)C(=O)NC2(C(=O)NC(CCC(=O)O)C(=O)NC(CC(N)=O)C(=O)NC(CC(N)=O)C(N)=O)CCOCC2)NC(=O)C(CCC(N)=O)NC(=O)C(Cc2c[nH]c3ccccc23)NC(=O)C(C(C)O)NC(=O)C(CCC(N)=O)NC1=O` (stereo not drawn) [Peptide 993, Ac-[(D)-Arg]-cyclo[[Abu]-QTWQC]-[Phe[4-(2-aminoethoxy)]]-[2-Nal]-[4-amino-4-carboxy-tetrahydropyran]-ENN-NH2], the “serum LCN2 concentration” value [1] is reported as “statistically significant decrease”, the “abundance of IL-22 protein” value ([2]; DSS rats, 61 mg/kg/day oral, distal colon, ELISA) is reported as “significant decreases” and the “relative expression of gene encoding IL-17A” value [2, 3] is reported as “significant decreases”. The “relative expression of gene encoding IL-17F” value [2, 3] was “significant decreases”, the “relative expression of gene encoding IL-22” value [2, 3] was “significant decreases” and the “mRNA and/or protein levels of IL-23-directed cytokines in the distal colons” value ([2]; DSS-treated rats, 61 mg/kg/day PO TID + in drinking water, day five, vs vehicle) was “significant reduction”.
